According to US9347089B2, “Therapeutic and diagnostic strategies” (Children's Medical Center Corporation, priority 2008, dated 2016):

Experiments:
H2AX mRNA = H2AX mRNA level by qRT-PCR; assay type: cell-based, human
Procedure: (§1) HepG2 cells were grown in DMEM supplemented with 10% FCS. HL60 and K562 cells were grown in RPMI-1640 supplemented with 10% FCS. K562 cells (0.5×10^6 cells/ml) were treated with TPA (16 nM, 2 d) or Hemin (100 μM, 4 d) for differentiation into megakaryocytes or erythrocytes, respectively. To induce macrophage or granulocyte differentiation, HL60 cells (0.5×10^6 cells/ml) were treated with TPA (16 nM, 2 d) or DMSO (1.25%, 5 d), respectively. We isolated human polymorphonuclear neutrophils (PMN) from whole blood after removing mononuclear cells and platelets by Ficoll-Hypaque density gradient centrifugation. Erythrocytes were lysed by treatment with ice-cold isotonic lysis buffer (0.155 M NH4Cl, pH 7.4). The remaining PMN cells were washed with Hanks' balanced salt solution and suspended in RPMI medium containing 10% (v/v) FCS. We isolated human macrophages from peripheral blood as described in Song et al. 2003.
(§2) Total RNA was isolated using Trizol (Invitrogen) and reverse transcribed using random hexamers and superscript II reverse transcriptase (Invitrogen). qRT-PCR was performed in triplicate samples using the SYBR Green master mix (Applied Biosystems) and the BioRad iCycler. Primers are provided in Supplemental Table 1. Results were normalized to GAPDH. miRNA quantitative PCR was done in triplicate using the TaqMan MicroRNA Assay from Applied Biosystems as per the manufacturer's instructions and normalized to U6 SnRNA.
(§3) HepG2 cells (2.5×10^5/well) were reverse transfected with 30 nM miRNA […] (cel-miR-67) mimics (Dharmacon) using NeoFx (Ambion) following the manufacturer's instructions. K562 cells were transfected with miRNA or control mimics (100 nM) using Amaxa nucleofection following the manufacturer's protocol. K562 cells were treated with TPA (16 nM, 2 d) and were transfected with 100 nM miR-24 ASO using lipofectamine 2000 (Invitrogen) and 36 h later these cells were exposed to indicated concentrations of bleomycin and cell viability was assessed 2 d later.

miR-24 = miR-24 level by qRT-PCR relative to U6; assay type: cell-based, human
Procedure: as §1, §2, §3

K562 cells [1] = assay: Chromosome breakage analysis after γ-irradiation; assay type: cell-based, human; settings: for Chromosome breaks and fragments versus control cells: 24 hr after 0.75 Gy γ-irradiation
Procedure: K562 and HepG2 cultures were exposed in duplicate wells to indicated doses of γ-irradiation and incubated at 37° C. for indicated times in 5% CO2. Cells were harvested and processed for chromosomal analysis following standard methods (S1). 50-75 Wright-stained metaphases for each condition were scored for chromosomal aberrations.

K562 cells [2] = assay: Cell viability assay after genotoxic drug, K562; assay type: cell-based, human; settings: for Sensitivity to DNA damage (viability after bleomycin): viability 2 d later
Procedure: as §3
(§4) microRNA-transfected K562 or HepG2 cells were seeded (2×10^3 cells/100 μl) into octuplicate microtiter wells, incubated overnight, and then treated with indicated reagents or medium for 48 h. Viability was measured by CyQuant Cell Proliferation Assay Kit as per manufacturer's instructions (Molecular Probes). Results were expressed as OD520 relative to that of untreated cells.

K562 cells [3] = assay: Cell proliferation by thymidine uptake; assay type: cell-based, human; settings: TPA-treated K562 cells, by 12 h
H2AX = H2AX protein level by immunoblot (densitometry relative to H3); assay type: cell-based, human
K562 cells [4] = assay: Single cell gel electrophoresis (comet) assay; assay type: cell-based, human
HepG2 cells [5] = assay: Cell viability assay after genotoxic drug, HepG2; assay type: cell-based
Procedure: as §3, §4

HepG2 cells [6] = assay: Cell cycle analysis by propidium iodide flow cytometry; assay type: cell-based; settings: HepG2 cells transfected 48 hr
CHEK1 = CHEK1 protein level by immunoblot; assay type: cell-based, human; settings: K562 cells
Procedure: K562 cells (1×10^6) were transfected with miR-24 mimics or control miRNA mimics (cel-miR-67) as above and 48 h later whole cell lysates were prepared using RIPA buffer (150 mM NaCl, 1% NP-40, 0.5% sodium deoxycholate, 0.1% SDS, 50 mM Tris, pH 8.0). Protein samples were quantified using Bradford reagent (BioRad) and resolved on 10% SDS-PAGE gels and analyzed by immunoblot probed with antibodies to H2AX (Upstate Biotech), CHEK1 (cell Signaling), histone H3 (Cell Signaling), tubulin (Sigma). All antibodies were used at a dilution of 1:1000.

3′UTR of H2AX mRNA = assay: Luciferase reporter assay with H2AX 3′UTR / MRE reporters in HepG2 cells; assay type: cell-based
Procedure: HepG2 cells (2.5×10^5/well) were reverse transfected in triplicate with 30 nM miR-24 mimic, miRNA-328 mimic or control miRNA mimic. Two days later, cells were transfected using Lipofectamine 2000 (Invitrogen) with psiCHECK2 (Promega) vector (0.5 μg/well) containing the 3′UTR of H2AX cloned in the multiple cloning site of Renilla luciferase or control. After 24 hr luciferase activities were measured using the Dual Luciferase Assay System (Promega) and TopCount NXT microplate reader (Perkin Elmer) per manufacturer's instructions. Data were normalized to Firefly luciferase. To test whether H2AX mRNA is directly regulated by miR-24, we cloned the two predicted MREs in the H2AX 3′ UTR into the multiple cloning site of psiCHECK2 and also the mutant versions that disrupted base-pairing between the binding sites and miR-24. HepG2 cells were cotransfected with these plasmids and miR-24 or control mimics for 48 h using Lipofectamine 2000, before we performed the luciferase assays as described above.

UBC mRNA = UBC mRNA level by qRT-PCR; assay type: cell-based; settings: miR-24 over-expression in HepG2 cells
Procedure: as §2, §3

C[S+](C)[O-] [DMSO]
Decline of H2AX mRNA, primers specific for the longer transcript (H2AX mRNA; HL60 cell differentiation): two-fold
miR-24 level during differentiation (miR-24; HL60 cells): increases

CCCCCCCCCCCCCC(=O)O[C@@H]1[C@@H](C)[C@@]2(O)[C@@H](C=C(CO)C[C@]3(O)C(=O)C(C)=C[C@@H]23)[C@@H]2C(C)(C)[C@]12OC(C)=O [TPA, 12-O-tetradecanoylphorbol-13-acetate]
Chromosome breaks and fragments versus control cells (K562 cells [1]): significantly more sensitive
Sensitivity to DNA damage (viability after bleomycin) (K562 cells [2]): significantly hypersensitive
Thymidine incorporation (K562 cells [3]): no thymidine incorporation
Decline of H2AX mRNA, primers specific for the longer transcript (H2AX mRNA; HL60 cell differentiation): two-fold
Decline of H2AX mRNA, primers specific for the longer transcript (H2AX mRNA; K562 cell differentiation): two-fold
Drop of H2AX protein level (H2AX; HL60 cells after TPA induction): 4 fold
Drop of H2AX protein level (H2AX; K562 cells after TPA induction): 14 fold
miR-24 level during differentiation (miR-24; HL60 cells): increases
miR-24 level during differentiation (miR-24; K562 cells): increases

hemin
Decline of H2AX mRNA, primers specific for the longer transcript (H2AX mRNA; K562 cell differentiation): two-fold
miR-24 level during differentiation (miR-24; K562 cells): increases

miR-24: microRNA miR-24 (SEQ ID NO: 1), transfected as synthetic mimic (Dharmacon) for over-expression (UGGCUCAGUUCAGCAGGAACAG; synthetic mimic, further chemistry not given here)
Chromosomal instability versus control cells (K562 cells [1]; 0.38 Gy): more chromosomal instability
Chromosome breaks versus control cells (K562 cells [1]; 24 hr after 0.38 Gy): not significantly more breaks
Chromosome breaks and fragments versus control cells (K562 cells [1]): twice as many
Effect on survival with miR-24-insensitive H2AX over-expression (K562 cells [2]): fully rescued
Hypersensitivity to bleomycin with miR-24-insensitive CHEK1 expression (K562 cells [2]; CHEK1 cDNA lacking 3′UTR): not rescued
Sensitivity to DNA damage (viability after bleomycin) (K562 cells [2]): significantly hypersensitive
Comet tails compared to control miRNA-transfected cells (K562 cells [4]; K562 cells after bleomycin treatment): 5 fold
Comet moment after bleomycin with H2AX rescue (K562 cells [4]; K562 cells co-transfected with H2AX expression plasmid lacking 3′UTR, versus miRNA control and vector): no significant increase
Basal comet moment (K562 cells [4]; K562 cells, no bleomycin): not significantly changed
Repair of bleomycin-induced DNA damage by comet assay (K562 cells [4]; TPA-treated K562 cells): significantly enhances repair
Effect on survival with miR-24-insensitive H2AX over-expression (HepG2 cells [5]; HepG2 cells): fully rescued
Cytotoxicity of bleomycin (HepG2 cells [5]; mimic-transfected HepG2 cells): significantly enhanced cytotoxicity
Cytotoxicity of cisplatin (HepG2 cells [5]; mimic-transfected HepG2 cells): significantly enhanced cytotoxicity
G1 compartment (HepG2 cells [6]): increases
Decrease of H2AX mRNA (H2AX mRNA; miRNA over-expression in HepG2 cells, 48 hr, normalized to GAPDH): 2 fold
H2AX protein (H2AX; K562 cells transfected with mimic): reduces H2AX comparably to TPA differentiation
Reduction of H2AX protein expression (H2AX; miRNA over-expression in HepG2 cells, 48 hr): −8 fold
CHEK1 protein (CHEK1): decrease
Reduction of luciferase activity (3′UTR of H2AX mRNA; H2AX 3′UTR-containing reporter): more than 2 fold
Effect on luciferase activity, mutated MRE reporters (3′UTR of H2AX mRNA; MREs with mutated seed region): little effect
Luciferase activity from control reporters (3′UTR of H2AX mRNA; control reporter (vector)): unchanged
Reduction of luciferase activity, wild-type miR-24 MRE reporters (3′UTR of H2AX mRNA; either wild-type MRE inserted): approximately four-fold
Effect on UBC mRNA levels (UBC mRNA): does not alter
